Counter-ions that a name gives are not always drawn.
What was measured:
PDGFRβ = biological target: T1, PDGFRβ (Homo sapiens, UniProt P09619); test: PDGFRβ cell-based assay (phospho-PDGFRβ ELISA, transfected CHO cells); settings: compound at 100 nM, read-out: % PDGFRβ kinase activity remains
T1 construct: expressed in transfected cells; host or cells: CHO cells, pcDNA3.1 plasmid
Experimental: A standard cell-based assay for PDGFRβ kinase activity can be used to test a compound of this invention and to identify PDGFRβ antagonists.
Specifically, a compound to be tested was first dissolved in DMSO to a concentration of 10 mM and stored at −20° C. The activity of PDGFRβ in cells depends on the phosphorylation level of its intracellular domain induced by the ligand. In order to express PDGFRβ in the cell, full length PDGFRβ sequence was cloned into PC-DNA3.1 vector. The plasmid was then transfected into CHO cells. After 48 hours following the transfection, the expression of PDGFRβ in transfected CHO cells was confirmed by regular western blotting.
To screen the compound of this invention, the ELISA kit (R&D Systems, Minneapolis, Minn., USA) was used. One day before the screening, CHO cells transfected with full length PDGFRβ plasmid were grown in DMEM medium without the presence of serum. On the day of screening, various concentrations of compounds (from 0.5 nM to 500 nM) were added into DMEM medium. Two hours later, 20% of FBS (Fetal Bovine Serum) was added into the medium to stimulate the expression of phosphor-PDGFRβ. Cell lysate from approximately 5×10^5 transfected CHO cells were reacted with anti-phosphor-PDGFRβ or anti-total PDGFRβ antibody in 96 well plates, in the presence of detection antibody, the phosphor-PDGFRβ or total PDGFRβ were detected with Streptavidin-HRP (R&D Systems), followed by chemiluminescent detection.

VEGFR2 = biological target: T2, VEGFR2 (Homo sapiens, UniProt P35968); test: VEGFR2 cell-based assay (phospho-VEGFR2 ELISA, transfected CHO cells); settings: compound at 100 nM, read-out: % VEGFR2 kinase activity remains
T2 construct: expressed in transfected cells; host or cells: CHO cells, pcDNA3.1 plasmid
Experimental: A standard cell-based assay for VEGFR2 kinase activity can be used to test compounds of this invention and to identify VEGFR2 antagonists.
Specifically, a compound to be tested was first dissolved in DMSO to a concentration of 10 mM and stored at −20° C. The activity of VEGFR2 in cells depends on the phosphorylation level at its intracellular domain induced by the ligand. In order to express VEGFR2 in the cells, full length VEGFR2 sequence was cloned into PC-DNA3.1 vector, the plasmid was then transfected into CHO cells. After 48 hours, the expression of VEGFR2 in transfected CHO cells was confirmed by regular western blotting.
To screen the compounds of this invention, the ELISA kit (R&D Systems) was used. One day before the screening, CHO cells transfected with full length VEGFR2 plasmid were grown in DMEM medium without the presence of serum. On the day of screening, various concentrations of compounds (From 0.5 nM to 500 nM) were added into DMEM medium. Two hours later, 20% of FBS (Fetal Bovine Serum) was added into the medium to stimulate the production of phosphor-VEGFR2. Cell lysate from approximately 5×10^5 transfected CHO cells were reacted with anti-phosphor-VEGFR2 or anti-total VEGFR2 antibody in 96 well plates. In the presence of detection antibody, the phosphor-VEGFR2 or total VEGFR2 were detected with Streptavidin-HRP (R&D Systems) followed by chemiluminescence detection.

c-Met = biological target: T3, c-Met (Homo sapiens, UniProt P08581); test: c-Met cell-based assay (phospho-c-Met ELISA, A549 cells); settings: compound at 100 nM
T3 construct: endogenous in cells; host or cells: A549 cells
Experimental: A procedure for standard cell-based assay for c-Met kinase activity can be used to test compounds of this invention for their inhibitory effect on this kinase and to identify c-Met antagonists.
Specifically, a compound to be tested was first dissolved in DMSO to a concentration of 10 mM and stored at −20° C. The activity of c-Met in cells depends on the phosphorylation level at its intracellular domain induced by its ligand, Hepatocyte growth factor (HGF). In order to induce the cells to produce phosphate c-Met, paracrine HGF-dependent NSCLC (None Small Cell Lung Cancer) A549 cells were grown in DMEM with 10% FBS.
To screen compounds of this invention for their inhibitory effect on c-Met kinase, the ELISA kit (R&D Systems) was used. One day before screening procedure, A549 cells were grown in DMEM without the presence of serum. On the day of screening procedure, various concentrations of compounds (from 0.5 nM to 500 nM) were added into the culture medium. Two hours later, 20% of FBS (Fetal Bovine Serum) was added into the medium to stimulate the expression of phosphor-c-Met. After 20 minutes, cell lysate from approximately 5×10^5 A549 cells were reacted with anti-phosphor-c-Met or anti total c-Met antibody in 96 well plates. In the presence of detection antibody, the phosphor-c-Met or total c-Met can be detected with Streptavidin-HRP (R&D Systems) followed by chemiluminescence detection.

T2 sequence (P35968 20-1356, species assumed): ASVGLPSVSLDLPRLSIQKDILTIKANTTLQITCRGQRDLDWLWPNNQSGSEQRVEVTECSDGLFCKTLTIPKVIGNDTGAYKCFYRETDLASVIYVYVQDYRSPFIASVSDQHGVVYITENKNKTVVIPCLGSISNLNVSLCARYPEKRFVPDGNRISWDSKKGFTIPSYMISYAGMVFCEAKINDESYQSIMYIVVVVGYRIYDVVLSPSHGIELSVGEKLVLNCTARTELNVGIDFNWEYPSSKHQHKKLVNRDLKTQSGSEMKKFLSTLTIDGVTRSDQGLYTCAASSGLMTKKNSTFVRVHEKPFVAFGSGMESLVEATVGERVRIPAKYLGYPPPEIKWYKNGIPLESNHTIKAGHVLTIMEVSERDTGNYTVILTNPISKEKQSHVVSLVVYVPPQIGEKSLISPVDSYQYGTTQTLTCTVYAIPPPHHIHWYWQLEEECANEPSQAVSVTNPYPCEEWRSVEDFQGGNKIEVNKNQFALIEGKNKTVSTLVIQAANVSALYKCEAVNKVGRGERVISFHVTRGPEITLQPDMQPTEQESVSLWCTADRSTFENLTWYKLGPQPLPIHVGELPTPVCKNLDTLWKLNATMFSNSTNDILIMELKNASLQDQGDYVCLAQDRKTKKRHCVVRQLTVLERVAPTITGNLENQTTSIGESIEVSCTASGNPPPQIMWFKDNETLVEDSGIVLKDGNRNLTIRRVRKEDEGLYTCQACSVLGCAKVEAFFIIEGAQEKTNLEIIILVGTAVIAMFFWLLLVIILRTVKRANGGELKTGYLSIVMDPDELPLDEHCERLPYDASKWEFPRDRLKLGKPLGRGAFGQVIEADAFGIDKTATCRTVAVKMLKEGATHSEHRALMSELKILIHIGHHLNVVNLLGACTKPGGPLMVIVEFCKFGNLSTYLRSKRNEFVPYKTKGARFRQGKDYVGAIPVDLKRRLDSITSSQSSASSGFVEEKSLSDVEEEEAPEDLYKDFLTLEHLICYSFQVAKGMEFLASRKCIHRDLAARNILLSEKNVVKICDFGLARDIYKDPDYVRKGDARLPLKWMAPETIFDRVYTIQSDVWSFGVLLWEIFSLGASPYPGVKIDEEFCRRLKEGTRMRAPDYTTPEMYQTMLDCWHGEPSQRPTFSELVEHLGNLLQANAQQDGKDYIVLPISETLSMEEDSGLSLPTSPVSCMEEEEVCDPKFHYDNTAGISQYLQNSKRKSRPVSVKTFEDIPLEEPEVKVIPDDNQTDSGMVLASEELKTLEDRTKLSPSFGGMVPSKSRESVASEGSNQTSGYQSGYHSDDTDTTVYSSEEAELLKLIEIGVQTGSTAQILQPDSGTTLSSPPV
T1 sequence (P09619 33-1106, species assumed): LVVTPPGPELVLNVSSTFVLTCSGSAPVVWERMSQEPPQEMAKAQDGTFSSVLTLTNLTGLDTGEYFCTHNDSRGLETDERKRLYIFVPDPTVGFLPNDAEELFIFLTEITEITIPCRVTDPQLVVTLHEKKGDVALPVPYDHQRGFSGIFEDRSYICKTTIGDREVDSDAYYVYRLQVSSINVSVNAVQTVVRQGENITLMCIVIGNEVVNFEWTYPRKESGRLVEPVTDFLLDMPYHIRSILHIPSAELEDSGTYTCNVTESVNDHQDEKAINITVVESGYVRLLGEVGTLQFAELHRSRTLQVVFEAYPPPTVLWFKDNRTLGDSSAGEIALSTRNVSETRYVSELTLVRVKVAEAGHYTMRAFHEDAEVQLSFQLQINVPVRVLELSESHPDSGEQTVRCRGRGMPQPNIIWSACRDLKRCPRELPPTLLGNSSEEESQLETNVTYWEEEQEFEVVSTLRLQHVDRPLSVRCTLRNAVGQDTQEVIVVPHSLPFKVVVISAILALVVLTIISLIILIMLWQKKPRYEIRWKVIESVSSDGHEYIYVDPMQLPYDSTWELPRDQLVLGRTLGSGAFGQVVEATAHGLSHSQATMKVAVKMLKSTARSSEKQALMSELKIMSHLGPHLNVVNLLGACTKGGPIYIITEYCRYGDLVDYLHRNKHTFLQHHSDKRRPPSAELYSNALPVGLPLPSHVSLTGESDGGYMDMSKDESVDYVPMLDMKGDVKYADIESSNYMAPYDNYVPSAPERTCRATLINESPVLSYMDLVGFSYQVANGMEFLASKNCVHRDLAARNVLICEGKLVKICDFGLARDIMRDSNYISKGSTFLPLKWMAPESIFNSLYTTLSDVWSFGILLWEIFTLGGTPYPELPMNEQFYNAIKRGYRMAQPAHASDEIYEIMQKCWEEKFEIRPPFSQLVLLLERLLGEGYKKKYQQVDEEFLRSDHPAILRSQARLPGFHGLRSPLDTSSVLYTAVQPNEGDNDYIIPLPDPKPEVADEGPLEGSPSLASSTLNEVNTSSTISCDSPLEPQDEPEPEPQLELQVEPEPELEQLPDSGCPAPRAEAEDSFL
T3 sequence (P08581 25-1390): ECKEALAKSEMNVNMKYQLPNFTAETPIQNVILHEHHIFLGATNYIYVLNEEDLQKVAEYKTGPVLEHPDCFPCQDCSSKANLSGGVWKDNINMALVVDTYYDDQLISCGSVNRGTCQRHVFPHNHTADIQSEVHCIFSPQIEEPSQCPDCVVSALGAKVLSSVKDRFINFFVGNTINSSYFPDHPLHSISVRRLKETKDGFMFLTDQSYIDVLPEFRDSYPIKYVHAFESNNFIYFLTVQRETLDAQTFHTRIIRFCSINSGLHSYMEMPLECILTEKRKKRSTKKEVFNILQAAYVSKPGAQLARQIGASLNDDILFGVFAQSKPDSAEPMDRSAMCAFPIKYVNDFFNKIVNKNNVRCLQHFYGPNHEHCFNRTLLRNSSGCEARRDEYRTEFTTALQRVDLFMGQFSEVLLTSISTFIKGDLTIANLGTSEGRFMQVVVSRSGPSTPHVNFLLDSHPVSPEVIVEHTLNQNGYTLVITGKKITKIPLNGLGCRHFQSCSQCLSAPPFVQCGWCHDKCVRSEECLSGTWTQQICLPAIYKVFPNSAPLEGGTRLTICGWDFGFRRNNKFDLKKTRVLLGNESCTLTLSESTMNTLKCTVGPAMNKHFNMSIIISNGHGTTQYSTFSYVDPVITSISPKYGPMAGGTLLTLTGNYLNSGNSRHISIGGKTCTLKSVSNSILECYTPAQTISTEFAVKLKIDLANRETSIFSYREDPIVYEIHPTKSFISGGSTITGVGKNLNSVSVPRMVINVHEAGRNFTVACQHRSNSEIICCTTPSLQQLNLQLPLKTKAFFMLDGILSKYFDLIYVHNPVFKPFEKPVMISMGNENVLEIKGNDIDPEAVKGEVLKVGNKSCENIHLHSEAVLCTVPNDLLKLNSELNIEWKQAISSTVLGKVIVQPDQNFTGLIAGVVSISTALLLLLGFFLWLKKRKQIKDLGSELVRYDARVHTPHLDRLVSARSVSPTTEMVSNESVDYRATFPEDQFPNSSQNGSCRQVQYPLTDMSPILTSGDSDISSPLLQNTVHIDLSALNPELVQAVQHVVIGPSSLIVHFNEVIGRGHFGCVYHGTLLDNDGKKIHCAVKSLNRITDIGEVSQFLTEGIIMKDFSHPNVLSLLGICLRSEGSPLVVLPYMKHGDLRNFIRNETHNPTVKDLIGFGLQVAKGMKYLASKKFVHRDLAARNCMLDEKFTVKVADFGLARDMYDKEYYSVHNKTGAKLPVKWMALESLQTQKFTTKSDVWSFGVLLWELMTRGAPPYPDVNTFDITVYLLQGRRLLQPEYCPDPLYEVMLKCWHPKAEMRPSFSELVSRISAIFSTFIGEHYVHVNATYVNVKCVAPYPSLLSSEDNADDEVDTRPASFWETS

remaining activity at 0.1 µM (PDGFRβ) [%]	remaining activity at 0.1 µM (VEGFR2) [%]	SMILES	% c-Met kinase activity remains (c-Met)
≥ 70	≥ 70	Cl.O=C(Nc1ccccc1)Nc1cccc2c1ccn2Cc1c[nH]c2ncccc12 [Example 4, 1-Phenyl-3-[1-(1H-pyrrolo[2,3-b]pyridin-3-ylmethyl)-1H-indol-4-yl]urea hydrochloride]	B (the percentage is greater or equal to 70%)
≥ 70	≥ 70	O=C(Nc1ccc(Cl)cc1)Nc1cccc2c1ccn2Cc1c[nH]c2ncccc12 [Example 10, 1-(4-Chlorophenyl)-3-[1-(1H-pyrrolo[2,3-b]pyridin-3-ylmethyl)-1H-indol-4-yl]urea hydrochloride]	B (the percentage is greater or equal to 70%)
≥ 70	< 70	Cl.O=C(Nc1cccc(Br)c1)Nc1cccc2c1ccn2Cc1c[nH]c2ncccc12 [Example 12, 1-(3-Bromophenyl)-3-[1-(1H-pyrrolo[2,3-b]pyridin-3-ylmethyl)-1H-indol-4-yl]urea hydrochloride]	A (the percentage of kinase activity remains is below 70%)
≥ 70	≥ 70	Cl.O=C(Nc1ccc(Br)cc1)Nc1cccc2c1ccn2Cc1c[nH]c2ncccc12 [Example 13, 1-(4-Bromophenyl)-3-[1-(1H-pyrrolo[2,3-b]pyridin-3-ylmethyl)-1H-indol-4-yl]urea hydrochloride]	A (the percentage of kinase activity remains is below 70%)
≥ 70	≥ 70	Cl.O=C(Nc1cccc(OC(F)(F)F)c1)Nc1cccc2c1ccn2Cc1c[nH]c2ncccc12 [Example 21, 1-(3-Trifluoromethoxyphenyl)-3-[1-(1H-pyrrolo[2,3-b]pyridin-3-ylmethyl)-1H-indol-4-yl]urea hydrochloride]	B (the percentage is greater or equal to 70%)
≥ 70	≥ 70	Cl.O=C(Nc1ccc(OC(F)(F)F)cc1)Nc1cccc2c1ccn2Cc1c[nH]c2ncccc12 [Example 22, 1-(4-Trifluoromethoxyphenyl)-3-[1-(1H-pyrrolo[2,3-b]pyridin-3-ylmethyl)-1H-indol-4-yl]urea hydrochloride]	A (the percentage of kinase activity remains is below 70%)
≥ 70	–	COc1ccc(F)c(NC(=O)Nc2cccc3c2ccn3Cc2c[nH]c3ncccc23)c1 [Example 31, 1-(2-Fluoro-5-methoxyphenyl)-3-[1-(1H-pyrrolo[2,3-b]pyridin-3-ylmethyl)-1H-indol-4-yl]urea hydrochloride]	–
–	< 70	O=C(Nc1ccccc1Cl)Nc1cccc2c1ccn2Cc1ccnc2[nH]ccc12 [Example 37, 1-(2-Chlorophenyl)-3-[1-(1H-pyrrolo[2,3-b]pyridin-4-ylmethyl)-1H-indol-4-yl]urea hydrochloride]	A (the percentage of kinase activity remains is below 70%)
–	< 70	O=C(Nc1ccc(Cl)cc1)Nc1cccc2c1ccn2Cc1ccnc2[nH]ccc12 [Example 39, 1-(4-Chlorophenyl)-3-[1-(1H-pyrrolo[2,3-b]pyridin-4-ylmethyl)-1H-indol-4-yl]urea hydrochloride]	A (the percentage of kinase activity remains is below 70%)
–	< 70	Cl.O=C(Nc1ccccc1Br)Nc1cccc2c1ccn2Cc1ccnc2[nH]ccc12 [Example 40, 1-(2-Bromophenyl)-3-[1-(1H-pyrrolo[2,3-b]pyridin-4-ylmethyl)-1H-indol-4-yl]urea hydrochloride]	A (the percentage of kinase activity remains is below 70%)
–	≥ 70	Cl.O=C(Nc1cccc(Br)c1)Nc1cccc2c1ccn2Cc1ccnc2[nH]ccc12 [Example 41, 1-(3-Bromophenyl)-3-[1-(1H-pyrrolo[2,3-b]pyridin-4-ylmethyl)-1H-indol-4-yl]urea hydrochloride]	B (the percentage is greater or equal to 70%)
–	< 70	Cl.O=C(Nc1ccc(Br)cc1)Nc1cccc2c1ccn2Cc1ccnc2[nH]ccc12 [Example 42, 1-(4-Bromophenyl)-3-[1-(1H-pyrrolo[2,3-b]pyridin-4-ylmethyl)-1H-indol-4-yl]urea hydrochloride]	B (the percentage is greater or equal to 70%)
–	< 70	Cc1ccc(NC(=O)Nc2cccc3c2ccn3Cc2ccnc3[nH]ccc23)cc1.Cl [Example 45, 1-(4-Methylphenyl)-3-[1-(1H-pyrrolo[2,3-b]pyridin-4-ylmethyl)-1H-indol-4-yl]urea hydrochloride]	A (the percentage of kinase activity remains is below 70%)
–	≥ 70	COc1ccccc1NC(=O)Nc1cccc2c1ccn2Cc1ccnc2[nH]ccc12.Cl [Example 46, 1-(2-Methoxyphenyl)-3-[1-(1H-pyrrolo[2,3-b]pyridin-4-ylmethyl)-1H-indol-4-yl]urea hydrochloride]	B (the percentage is greater or equal to 70%)
≥ 70	–	O=C(Nc1ccccc1C(F)(F)F)Nc1cccc2c1ccn2Cc1ccnc2[nH]ccc12 [Example 50, 1-(2-Trifluoromethylphenyl)-3-[1-(1H-pyrrolo[2,3-b]pyridin-4-ylmethyl)-1H-indol-4-yl]urea hydrochloride]	–
≥ 70	–	N#Cc1cccc(NC(=O)Nc2cccc3c2ccn3Cc2ccnc3[nH]ccc23)c1 [Example 53, 1-(3-Cyanophenyl)-3-[1-(1H-pyrrolo[2,3-b]pyridin-4-ylmethyl)-1H-indol-4-yl]urea hydrochloride]	–
–	< 70	Cl.O=C(Nc1cc(Br)ccc1F)Nc1cccc2c1ccn2Cc1ccnc2[nH]ccc12 [Example 57, 1-(2-Fluoro-5-bromophenyl)-3-[1-(1H-pyrrolo[2,3-b]pyridin-4-ylmethyl)-1H-indol-4-yl]urea hydrochloride]	A (the percentage of kinase activity remains is below 70%)
–	< 70	Cc1ccc(Br)c(NC(=O)Nc2cccc3c2ccn3Cc2ccnc3[nH]ccc23)c1.Cl [Example 58, 1-(2-Bromo-5-methylphenyl)-3-[1-(1H-pyrrolo[2,3-b]pyridin-4-ylmethyl)-1H-indol-4-yl]urea hydrochloride]	A (the percentage of kinase activity remains is below 70%)
–	< 70	Cc1c(F)cccc1NC(=O)Nc1cccc2c1ccn2Cc1ccnc2[nH]ccc12.Cl [Example 59, 1-(2-Methyl-3-fluorophenyl)-3-[1-(1H-pyrrolo[2,3-b]pyridin-4-ylmethyl)-1H-indol-4-yl]urea hydrochloride]	A (the percentage of kinase activity remains is below 70%)
